From US20090110671A1, “AGENT FOR ENHANCHING THE PRODUCTION OF COLLAGEN AND IT'S USE” (priority 2005, published 2009)

Columns and labels:
[1] = test system: NHDF cells; experiment: Experiment 4: collagen production in NHDF cells, saccharides combined with hyaluronic acid and/or chondroitin sulfate; type: cell-based, human
Text: Influence of α,α-trehalose or a saccharide derivative thereof, or a combination use of any of these saccharides and hyaluronic acid and/or chondroitin sulfate on the collagen production by L-ascorbic acids was examined as follows. AA-2G and any one of hydrous crystalline α,α-trehalose, a reagent grade specimen commercialized by Hayashibara Biochemical Laboratories Inc., Okayama, Japan; α-maltosyl α,α-trehalose with a purity of at least 98% commercialized by Hayashibara Biochemical Laboratories Inc., Okayama, Japan; and “HALLODEX”, a product name of a syrup of saccharide derivatives of α,α-trehalose were dissolved in D-MEM medium to give final concentrations of 50 μM of AA-2G and 15.0 mg/ml of saccharides. Further, as another test solutions, those, which had been prepared similarly as in the above, were admixed with any one of hyaluronic acid, chondroitin sulfate, and a combination thereof to give respective concentrations of 1 mg/ml, 1 mg/ml, and 0.5 mg/ml of hyaluronic acid and chondroitin sulfate each. The medium supplemented with a syrup containing about 59%, d.s.b., of saccharide derivatives of α,α-trehalose was prepared to give a concentration of 15.0 mg/ml of the saccharide derivatives of α,α-trehalose contained in the syrup. The culture of NHDF cells and the quantification of collagen-production level thereof were carried out similarly as in Experiment 1. The results are in Table 4 where the values are expressed with relative values in terms of the collagen-production level of NHDF cells, being regarded as 100, when cultured in D-MEM medium containing AA-2G.

[2] = test system: skin wrinkles/finely-wrinkles and flabby skin; experiment: Experiment 5: self-evaluation of lotions on skin wrinkles/finely-wrinkles and flabby skin, four months; type: in vivo, human; conditions: 4 months; for Evaluation A (remarkably efficacious) / Evaluation B (efficacious) / Evaluation C (slightly efficacious) / Evaluation D (inefficacious): lotion
Method: The following experiment was conducted to examine the influence of α,α-trehalose or saccharide derivatives thereof and hyaluronic acid and/or chondroitin sulfate on the skin. Since there exists a relatively constant amount of L-ascorbic acid in vivo, the collagen production by L-ascorbic acid proceeds constantly. Based on the following basic formulation for lotion and the combination and composition in Table 5, 100 parts by weights of a lotion was prepared by adding to the basic formulation sodium hyaluronate, chondroitin sulfate, hydrous crystalline α,α-trehalose, a cosmetic grade specimen commercialized by Hayashibara Biochemical Laboratories Inc., Okayama, Japan, and “[…]”, a product name of a syrup having a solid content of about 75% and containing, on a dry solid basis, about 53% by weight of α-maltosyl α,α-trehalose and about 5% by weight of other saccharide derivatives of α,α-trehalose, and an adequate amount of refined water. In Table 5, the respective amounts of the added saccharide are expressed on a dry solid basis. The syrup containing saccharide derivatives of α,α-trehalose was added in an amount of the saccharide derivatives as shown in Table 5. Eleven women as volunteers, who had been suffering from skin wrinkles/finely-wrinkles or flabby skin, were allowed to wash their faces with any of the lotions having compositions in Table 5 three times a day for four months and then allowed to evaluate themselves about their face-skin conditions by comparing with those before use of the lotions.

[3] = added saccharide 0.05 part by weight, 3 times a day
[4] = added saccharide 0.1 part by weight, 3 times a day
[5] = added saccharide 1 part by weight, 3 times a day
[6] = added saccharide 2 + chondroitin sulfate 0.5 part by weight
[7] = added saccharide 2 + sodium hyaluronate 0.25 + chondroitin sulfate 0.25 part by weight
[8] = added saccharide 2 + sodium hyaluronate 0.5 part by weight
[9] = added saccharide 2 parts by weight, 3 times a day
[10] = added saccharide 10 parts by weight, 3 times a day
[11] = added saccharide 20 parts by weight, 3 times a day

Compound: OC[C@H]1O[C@H](O[C@H]2O[C@H](CO)[C@@H](O)[C@H](O)[C@H]2O)[C@H](O)[C@@H](O)[C@@H]1O [α,α-trehalose]
- Collagen-production level ([1]; saccharide 15.0 mg/ml + 50 μM AA-2G): 203
- Collagen-production level ([1]; saccharide 15.0 mg/ml + 50 μM AA-2G + chondroitin sulfate 1 mg/ml): 256
- Collagen-production level ([1]; saccharide 15.0 mg/ml + 50 μM AA-2G + hyaluronate and chondroitin sulfate 0.5 mg/ml each): 344
- Collagen-production level ([1]; saccharide 15.0 mg/ml + 50 μM AA-2G + sodium hyaluronate 1 mg/ml): 276
- Collagen-production level ([1]; saccharide 15.0 mg/ml alone, no AA-2G, no hyaluronate, no chondroitin sulfate): 42
- Evaluation A (remarkably efficacious) [2, 3]: 0 number of volunteers
- Evaluation B (efficacious) [2, 3]: 0 number of volunteers
- Evaluation C (slightly efficacious) [2, 3]: 3 number of volunteers
- Evaluation D (inefficacious) [2, 3]: 8 number of volunteers
- Evaluation A (remarkably efficacious) [2, 4]: 0 number of volunteers
- Evaluation B (efficacious) [2, 4]: 2 number of volunteers
- Evaluation C (slightly efficacious) [2, 4]: 5 number of volunteers
- Evaluation D (inefficacious) [2, 4]: 4 number of volunteers
- Evaluation A (remarkably efficacious) [2, 5]: 2 number of volunteers
- Evaluation B (efficacious) [2, 5]: 2 number of volunteers
- Evaluation C (slightly efficacious) [2, 5]: 6 number of volunteers
- Evaluation D (inefficacious) [2, 5]: 1 number of volunteers
- Evaluation A (remarkably efficacious) [2, 6]: 3 number of volunteers
- Evaluation B (efficacious) [2, 6]: 5 number of volunteers
- Evaluation C (slightly efficacious) [2, 6]: 3 number of volunteers
- Evaluation D (inefficacious) [2, 6]: 0 number of volunteers
- Evaluation A (remarkably efficacious) [2, 7]: 6 number of volunteers
- Evaluation B (efficacious) [2, 7]: 3 number of volunteers
- Evaluation C (slightly efficacious) [2, 7]: 2 number of volunteers
- Evaluation D (inefficacious) [2, 7]: 0 number of volunteers
- Evaluation A (remarkably efficacious) [2, 8]: 3 number of volunteers
- Evaluation B (efficacious) [2, 8]: 4 number of volunteers
- Evaluation C (slightly efficacious) [2, 8]: 3 number of volunteers
- Evaluation D (inefficacious) [2, 8]: 1 number of volunteers
- Evaluation A (remarkably efficacious) [2, 9]: 2 number of volunteers
- Evaluation B (efficacious) [2, 9]: 4 number of volunteers
- Evaluation C (slightly efficacious) [2, 9]: 4 number of volunteers
- Evaluation D (inefficacious) [2, 9]: 1 number of volunteers
- Evaluation A (remarkably efficacious) [2, 10]: 3 number of volunteers
- Evaluation B (efficacious) [2, 10]: 3 number of volunteers
- Evaluation C (slightly efficacious) [2, 10]: 5 number of volunteers
- Evaluation D (inefficacious) [2, 10]: 0 number of volunteers
- Evaluation A (remarkably efficacious) [2, 11]: 3 number of volunteers
- Evaluation B (efficacious) [2, 11]: 3 number of volunteers
- Evaluation C (slightly efficacious) [2, 11]: 5 number of volunteers
- Evaluation D (inefficacious) [2, 11]: 0 number of volunteers
- volunteers who evaluated the lotions efficacious or more ([2]; lotions with 2 to 20 parts by weight of saccharide): six
